Reference: patent publication US7138361B2, “Herbicidal heterocycles” (E. I. du Pont de Nemours and Company, priority 2000, dated 2006)

Assays:
Type in all cases: in vivo
Nightshade [1] = test: Test C preemergence
Sunflower = test: Test C preemergence; settings: Rate 125 g/ha; scale 0 to 100, 0 no effect, 100 complete control
[2] = test system: Surinam grass (Brachiaria decumbens); test: Test C preemergence
Summary of the method: (§1)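 Formulation: non-phytotoxic solvent mix incl. surfactant. Pre: applied right after planting. Post: 1–4-leaf seedlings. Read: visual 0–100, day 12–14, greenhouse.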

[3] = test system: bermudagrass (Cynodon dactylon); test: Test C preemergence
Summary of the method: as §1

[4] = test system: cocklebur (Xanthium strumarium); test: Test C preemergence
Summary of the method: as §1

[5] = test system: common ragweed (Ambrosia elatior); test: Test C preemergence
Summary of the method: as §1

corn (Zea mays) = test: Test C preemergence
Summary of the method: as §1

[6] = test system: crabgrass (Digitaria sanguinalis); test: Test C preemergence
Summary of the method: as §1

[7] = test system: giant foxtail (Setaria faberii); test: Test C preemergence
Summary of the method: as §1

[8] = test system: goosegrass (Eleusine indica); test: Test C preemergence
Summary of the method: as §1

[9] = test system: johnsongrass (Sorghum halepense); test: Test C preemergence
Summary of the method: as §1

kochia (Kochia scoparia) = test: Test C preemergence
Summary of the method: as §1

[10] = test system: morningglory (Ipomoea hederacea); test: Test C preemergence
Summary of the method: as §1

[11] = test system: pigweed (Amaranthus retroflexus); test: Test C preemergence
Summary of the method: as §1

soybean (Glycine max) = test: Test C preemergence
Summary of the method: as §1

[12] = test system: velvetleaf (Abutilon theophrasti); test: Test C preemergence
Summary of the method: as §1

[13] = test system: woolly cupgrass (Eriochloa villosa); test: Test C preemergence
Summary of the method: as §1

[14] = test system: yellow nutsedge (Cyperus esculentus); test: Test C preemergence
Summary of the method: as §1

[15] = test system: barnyardgrass (Echinochloa crus-galli); test: Test C flooded paddy test; settings: for Plant response rating, Barnyardgrass: scale 0 to 100 (0 no effect, 100 complete control)
Summary of the method: (§2)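 Ratings come from visual comparison with control plants after 12 to 14 days in the greenhouse. Each species was at the 2-leaf stage when the flooded paddy was treated. Scores run from 0, meaning no effect, to 100, meaning complete control.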

[16] = test system: duck salad (Heteranthera limosa); test: Test C flooded paddy test; settings: for Plant response rating, Ducksalad: scale 0 to 100 (0 no effect, 100 complete control)
Summary of the method: as §2

rice (Oryza saliva) = test: Test C flooded paddy test; settings: for Plant response rating, Rice: scale 0 to 100 (0 no effect, 100 complete control)
Summary of the method: as §2

[17] = test system: smallflower flatsedge (Cyperus difformis); test: Test C flooded paddy test; settings: for Plant response rating, Flatsedge: scale 0 to 100 (0 no effect, 100 complete control)
Summary of the method: as §2

Nightshade [18] = test: Test C preemergence; settings: Rate 500 g/ha, visual evaluation after 12 to 14 days
[19] = Rate 125 g/ha, scale 0 to 100, 0 no effect, 100 complete control
[20] = preemergence, Rate 62 g/ha, scale 0 to 100
[21] = preemergence, Rate 500 g/ha, visual evaluation after 12 to 14 days
[22] = preemergence, Rate 250 g/ha, scale 0 to 100, 0 no effect, 100 complete control
[23] = Flooded Paddy, Rate 500 g/ha, scale 0 to 100, 0 no effect, 100 complete control
[24] = flooded paddy test, Rate 125 g/ha
[25] = flooded paddy test, Rate 250 g/ha
[26] = flooded paddy test, Rate 62 g/ha, visually evaluated after 12 to 14 days, 0 = no effect, 100 = complete control

COc1cc(N2CCC(n3ccc(C(C)(C)C)n3)C2=O)ccc1Br (stereo not shown) [Compound 141]
85: Plant response rating (scale 0 to 100), Ducksalad [16, 26]
10: Plant response rating, Surinam grass [2, 20]
30: Plant response rating, Corn (corn (Zea mays); [19]) | Plant response rating (0 to 100), Corn (corn (Zea mays); [21]) | Plant response rating, Corn (corn (Zea mays); [22]) | Plant response rating, Morningglory [10, 20] | Plant response rating, Rice (rice (Oryza saliva); [25])
90: Plant response rating, Flatsedge [17, 24] | Plant response rating (scale 0 to 100), Flatsedge [17, 26]
95: Plant response rating, Ducksalad [16, 24] | Flatsedge plant response rating [17, 23] | Plant response rating, Flatsedge [17, 25]
35: Rice plant response rating (rice (Oryza saliva); [23])
70: Plant response rating, Cocklebur [4, 22] | Plant response rating, Soybean (soybean (Glycine max); [20]) | Plant response rating, Velvetleaf [12, 19] | Plant response rating, Velvetleaf [12, 20] | Plant response rating, Velvetleaf [12, 22] | Plant response rating (scale 0 to 100), Barnyardgrass [15, 26]
50: Plant response rating (0 to 100), Nutsedge [14, 21]
40: Plant response rating, Sunflower (Sunflower)
100: Plant response rating, Nightshade (Nightshade [1]; Rate 62 g/ha, scale 0 to 100) | Plant response rating, Nightshade (Nightshade [1]; [19]) | Plant response rating, Nightshade (Nightshade [1]; Rate 250 g/ha, scale 0 to 100, 0 no effect, 100 complete control) | Plant response rating (0 to 100), Surinam grass [2, 21] | Plant response rating, Bermudagrass [3, 19] | Plant response rating, Bermudagrass [3, 20] | Plant response rating (0 to 100 where 0 is no effect and 100 is complete control), Bermudagrass [3, 21] | Plant response rating, Bermudagrass [3, 22] | Plant response rating (0 to 100), Cocklebur [4, 21] | Plant response rating, Ragweed, Common [5, 19] | Plant response rating, Ragweed, Common [5, 20] | Plant response rating (0 to 100), Ragweed, Common [5, 21] | Plant response rating, Ragweed, Common [5, 22] | Plant response rating, Crabgrass [6, 19] | Plant response rating, Crabgrass [6, 20] | Plant response rating (0 to 100), Crabgrass [6, 21] | Plant response rating, Crabgrass [6, 22] | Plant response rating, Foxtail, Giant [7, 19] | Plant response rating, Foxtail, Giant [7, 20] | Plant response rating (0 to 100), Foxtail, Giant [7, 21] | Plant response rating, Foxtail, Giant [7, 22] | Plant response rating, Goosegrass [8, 19] | Plant response rating, Goosegrass [8, 20] | Plant response rating (0 to 100), Goosegrass [8, 21] | Plant response rating, Goosegrass [8, 22] | Plant response rating (0 to 100), Johnsongrass [9, 21] | Plant response rating, Kochia (kochia (Kochia scoparia); [19]) | Plant response rating, Kochia (kochia (Kochia scoparia); [20]) | Plant response rating (0 to 100), Kochia (kochia (Kochia scoparia); [21]) | Plant response rating, Kochia (kochia (Kochia scoparia); [22]) | Plant response rating, Morningglory [10, 19] | Plant response rating (0 to 100), Morningglory [10, 21] | Plant response rating, Morningglory [10, 22] | Plant response rating, Pigweed [11, 19] | Plant response rating, Pigweed [11, 20] | Plant response rating (0 to 100), Pigweed [11, 21] | Plant response rating, Pigweed [11, 22] | Plant response rating, Soybean (soybean (Glycine max); [19]) | Plant response rating (0 to 100), Soybean (soybean (Glycine max); [21]) | Plant response rating, Soybean (soybean (Glycine max); [22]) | Plant response rating (0 to 100), Velvetleaf [12, 21] | Plant response rating, Cupgrass, Woolly [13, 19] | Plant response rating, Cupgrass, Woolly [13, 20] | Plant response rating (0 to 100), Cupgrass, Woolly [13, 21] | Plant response rating, Cupgrass, Woolly [13, 22] | Barnyardgrass plant response rating [15, 23] | Plant response rating, Barnyardgrass [15, 24] | Plant response rating, Barnyardgrass [15, 25] | Ducksalad plant response rating [16, 23] | Plant response rating, Ducksalad [16, 25] | Plant response rating (0 to 100), Nightshade (Nightshade [18])
60: Plant response rating, Cocklebur [4, 19]
20: Plant response rating, Surinam grass [2, 19] | Plant response rating, Surinam grass [2, 22]
25: Plant response rating, Rice (rice (Oryza saliva); [24])
0: Plant response rating, Cocklebur [4, 20] | Plant response rating, Corn (corn (Zea mays); [20]) | Plant response rating, Johnsongrass [9, 19] | Plant response rating, Johnsongrass [9, 20] | Plant response rating, Johnsongrass [9, 22] | Plant response rating, Nutsedge [14, 19] | Plant response rating, Nutsedge [14, 20] | Plant response rating, Nutsedge [14, 22] | Plant response rating (scale 0 to 100), Rice (rice (Oryza saliva); [26])
